Measured values reported in patent US20040248887A1, “Inhibitors of cathepsin S” (IRM LLC, priority 2003, published 2004).

These molecules were tested against Cathepsin S (Homo sapiens, UniProt P25774) (assay: Cathepsin S inhibition, fluorogenic peptide substrate kinetic assay). Conditions: Table II; Cathepsin S inhibition constant, pH5.5; read-out: Ki Cat. S.
Sequence of Cathepsin S (P25774 115-331, species assumed): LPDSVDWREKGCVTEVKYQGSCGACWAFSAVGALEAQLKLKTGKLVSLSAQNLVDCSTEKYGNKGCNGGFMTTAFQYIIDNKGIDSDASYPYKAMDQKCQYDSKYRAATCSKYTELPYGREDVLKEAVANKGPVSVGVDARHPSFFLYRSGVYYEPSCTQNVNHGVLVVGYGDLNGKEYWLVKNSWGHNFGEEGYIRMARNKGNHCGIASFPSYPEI
Assay type: biochemical
In short: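 Ki values derive from apparent constants fitted to progress curves, corrected for competition with substrate via [S] and Km. Kinetics were monitored at 380 nm excitation/450 nm emission, after substrate addition (Ac-HPVK-ACC, 50 μM final) to start the reaction.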
COc1cccc(C(=O)N[C@@H](CC(C)(C)C)C(=O)N[C@@H](Cc2nnn[nH]2)CN2CCc3cc(F)ccc32)c1 [Compound 166, N-{1-(S)-[2-(5-Fluoro-2,3-dihydro-indol-1-yl)-1-(S)-(1H-tetrazol-5-ylmethyl)-ethylcarbamoyl]-3,3-dimethyl-butyl}-3-methoxy-benzamide] showed a Ki of under 100 nM.
For O=C(N[C@@H](CC1CC1)C(=O)NCCN1CCc2cc(F)ccc21)c1ccc(-c2cccc(C(F)(F)F)c2)o1 [Compound 194, N-((S)-1-(2-(5-fluoroindolin-1-yl)ethylcarbamoyl)-2-cyclopropylethyl)-5-(3-(trifluoromethyl)phenyl)furan-2-carboxamide], the Ki was under 1000 nM.
In the case of C[C@@H](CNc1ccc(C#N)cc1)NC(=O)[C@H](CC1CCCCC1)NC(=O)c1ccc(-c2cccc(F)c2)o1 [Compound 93, 5-(3-Fluoro-phenyl)-furan-2-carboxylic acid {1-(S)-[2-(4-cyano-phenylamino)-1-(S)-methyl-ethylcarbamoyl]-2-cyclohexyl-ethyl}-amide], the Ki is reported as under 1000 nM.
C[C@@H](CN1c2ccc(F)cc2CC1(C)C)NC(=O)[C@H](CC1CCCCC1)NC(=O)C1CCOCC1 [Compound 139, Tetrahydropyran-4-carboxylic acid {2-cyclohexyl-1-(S)-[2-(5-fluoro-2,2-dimethyl-2,3-dihydro-indol-1-yl)-1-(S)-methyl-ethylcarbamoyl]-ethyl}-amide] was tested, and the Ki was under 100 nM.
O=C(NCCN1CCc2cc(F)ccc21)[C@H](CC1CCCCC1)NS(=O)(=O)c1ccc(C(F)(F)F)cc1 [Compound 229, (S)-3-Cyclohexyl-N-[2-(5-fluoro-2,3-dihydro-indol-1-yl)-ethyl]-2-(4-trifluoromethyl-benzenesulfonylamino)-propionamide] gave a Ki of under 1000 nM.
Molecule C[C@@H](CNc1ccc(OC(F)(F)F)cc1)NC(=O)[C@H](CC1CCCCC1)NS(=O)(=O)c1cccc(OC(F)(F)F)c1 [Compound 182, (S,S)-3-Cyclohexyl-N-[1-methyl-2-(4-trifluoromethoxy-phenylamino)-ethyl]-2-(3-trifluoromethoxy-benzenesulfonylamino)-propionamide] has a Ki of under 100 nM.
In the case of COc1ccc(NC[C@H](C)NC(=O)[C@H](CC(C)(C)C)NC(=O)c2ccc(-c3cccc(F)c3)o2)cc1 [Compound 132, 5-(3-Fluoro-phenyl)-furan-2-carboxylic acid {1-(S)-[2-(4-methoxy-phenylamino)-1-(S)-methyl-ethylcarbamoyl]-3,3-dimethyl-butyl}-amide], the Ki is reported as under 100 nM.
Cc1cccc(S(=O)(=O)N[C@@H](CC(C)(C)C)C(=O)N[C@@H](CC(=O)O)CN2CCc3cc(F)ccc32)c1 [Compound 262, (S,S)-3-[4,4-Dimethyl-2-(toluene-3-sulfonylamino)-pentanoylamino]-4-(5-fluoro-2,3-dihydro-indol-1-yl)-butyric acid] showed a Ki of under 100 nM.
With Cc1cccc(C(=O)N[C@@H](Cc2ccccc2)C(=O)NC(C)(C)CN2CCc3cc(F)ccc32)c1 [Compound 28, N-{(1S)-[2-(5-Fluoro-2,3-dihydro-indol-1-yl)-1,1-dimethyl-ethylcarbamoyl]-2-phenyl-ethyl}-3-methyl-benzamide] the Ki was under 10000 nM.
For CC(C)(C)C[C@H](NC(=O)OCc1ccccc1)C(=O)N[C@@H](CC(=O)O)CN1CCc2cc(F)ccc21 [Compound 159, 3-(S)-(2-(S)-Benzyloxycarbonylamino-4,4-dimethyl-pentanoylamino)-4-(5-fluoro-2,3-dihydro-indol-1-yl)-butyric acid], the Ki was under 1000 nM.
With O=C(N[C@@H](CC1CCCCC1)C(=O)NCCN1CCc2cc(F)ccc21)c1ccc(-c2ccccc2)o1 [Compound 75, 5-Phenyl-furan-2-carboxylic acid (S)-{2-cyclohexyl-1-[2-(5-fluoro-2,3-dihydro-indol-1-yl)-ethylcarbamoyl]-ethyl}-amide] the Ki was under 100 nM.
For Cc1ccc(C(C)C(=O)N[C@@H](CC2CCCCC2)C(=O)NCCN2CCc3cc(F)ccc32)cc1 (stereo partly drawn) [Compound 60, N-{2-cyclohexyl-1-(S)-[2-(5-fluoro-2,3-dihydro-indol-1-yl)-ethylcarbamoyl]-ethyl}-2-p-tolyl-propionamide], the Ki was under 100 nM.
In the case of C[C@@H](CN1CC(C)(C)c2cc(F)ccc21)NC(=O)[C@H](CC1CCCCC1)NC(=O)C1CCOCC1 [Compound 173, Tetrahydropyran-4-carboxylic acid {2-cyclohexyl-1-(S)-[2-(5-fluoro-3,3-dimethyl-2,3-dihydro-indol-1-yl)-1-(S)-methyl-ethylcarbamoyl]-ethyl}-amide], the Ki is reported as under 100 nM.
Molecule C[C@@H](C(=O)N[C@@H](CC1CCCCC1)C(=O)NCCN1CCc2cc(F)ccc21)c1ccccc1 [Compound 70, N-{2-cyclohexyl-1-(S)-[2-(5-fluoro-2,3-dihydro-indol-1-yl)-ethylcarbamoyl]-ethyl}-2-(R)-phenyl-propionamide] has a Ki of under 100 nM.
C[C@@H](CN1CCc2cc(F)ccc21)NC(=O)[C@H](CC(C)(C)C)NC(=O)Cc1nnn[nH]1 [Compound 179, 4,4-Dimethyl-2-(S)-(2-1H-tetrazol-5-yl-acetylamino)-pentanoic acid [2-(5-fluoro-2,3-dihydro-indol-1-yl)-1-(S)-methyl-ethyl]-amide] was tested, and the Ki was under 1000 nM.
Molecule O=C(N[C@@H](CC1CCCCC1)C(=O)NCCN1CCc2cc(F)ccc21)C1CC(=O)N(Cc2ccco2)C1 (stereo partly drawn) [Compound 74, 1-Furan-2-ylmethyl-5-oxo-pyrrolidine-3-carboxylic acid (S)-{2-cyclohexyl-1-[2-(5-fluoro-2,3-dihydro-indol-1-yl)-ethylcarbamoyl]-ethyl}-amide] has a Ki of under 1000 nM.
In the case of C[C@@H](CNc1cccc(S(C)(=O)=O)c1)NC(=O)[C@H](CC1CCCCC1)NC(=O)c1ccc(-c2ccc(F)cc2)o1 [Compound 106, 5-(4-Fluoro-phenyl)-furan-2-carboxylic acid {2-cyclohexyl-1-(S)-[2-(3-methanesulfonyl-phenylamino)-1-(S)-methyl-ethylcarbamoyl]-ethyl}-amide], the Ki is reported as under 100 nM.
CC(C)(C)OC(=O)N[C@@H](CC1CCCCC1)C(=O)N[C@@H](CC(=O)OCc1ccccc1)CN1CCc2cc(F)ccc21 [Compound 261, (S,S)-3-(2-tert-Butoxycarbonylamino-3-cyclohexyl-propionylamino)-4-(5-fluoro-2,3-dihydro-indol-1-yl)-butyric acid benzyl ester] was tested, and the Ki was under 100 nM.
Molecule COc1ccc(Oc2ccc(S(=O)(=O)N[C@@H](CC3CCCCC3)C(=O)NCCN3CCc4cc(F)ccc43)cc2)cc1 [Compound 244, (S)-3-Cyclohexyl-N-[2-(5-fluoro-2,3-dihydro-indol-1-yl)-ethyl]-2-[4-(4-methoxy-phenoxy)-benzenesulfonylamino]-propionamide] has a Ki of under 100 nM.
For COc1ccc(NC[C@H](COCc2ccccc2)NC(=O)[C@H](CC(C)C)NC(=O)c2cccc(C)c2)cc1 [Compound 35, N-{1-(S)-[1-(R)-Benzyloxymethyl-2-(4-methoxy-phenylamino)-ethylcarbamoyl]-3-methyl-butyl}-3-methyl-benzamide], the Ki was under 100 nM.
For C[C@@H](CN1CCc2cc(F)ccc21)NC(=O)[C@H](CC1CCCCC1)NS(=O)(=O)c1cccc(Cl)c1 [Compound 259, (S,S)-2-(3-Chloro-benzenesulfonylamino)-3-cyclohexyl-N-[2-(5-fluoro-2,3-dihydro-indol-1-yl)-1-methyl-ethyl]-propionamide], the Ki was under 100 nM.
With Cc1cccc(C(=O)N[C@@H](CC(C)C)C(=O)N[C@@H](CCC(=O)O)CN2CCc3cc(F)ccc32)c1 [Compound 43, (S,S)-5-(5-Fluoro-2,3-dihydro-indol-1-yl)-4-[4-methyl-2-(3-methyl-benzoylamino)-pentanoylamino]-pentanoic acid] the Ki was under 100 nM.
O=C(NCCN1CCc2cc(F)ccc21)[C@H](CC1CCCCC1)NS(=O)(=O)c1cccs1 [Compound 235, (S)-3-Cyclohexyl-N-[2-(5-fluoro-2,3-dihydro-indol-1-yl)-ethyl]-2-(thiophene-2-sulfonylamino)-propionamide] was tested, and the Ki was under 1000 nM.
With Cc1cccc(C(=O)N[C@@H](CC(C)C)C(=O)N[C@@H](CCNC(N)=O)CN2CCc3cc(F)ccc32)c1 [Compound 45, (S,S)-N-{1-[1-(5-Fluoro-2,3-dihydro-indol-1-ylmethyl)-3-ureido-propylcarbamoyl]-3-methyl-butyl}-3-methyl-benzamide] the Ki was under 1000 nM.
COc1ccc(NC(C)CNC(=O)[C@H](CC(C)C)NC(=O)c2cccc(C)c2)cc1 (mixture of isomers) [Compound 20, N-{1-(S)-[2-(4-Methoxy-phenylamino)-propylcarbamoyl]-3-methyl-butyl}-3-methyl-benzamide] was tested, and the Ki was under 10000 nM.
For O=C(NCCN1CCc2cc(F)ccc21)[C@H](CC1CCCCC1)NS(=O)(=O)c1cc2ccccc2s1 [Compound 234, (S)-2-(Benzo[b]thiophene-2-sulfonylamino)-3-cyclohexyl-N-[2-(5-fluoro-2,3-dihydro-indol-1-yl)-ethyl]-propionamide], the Ki was under 1000 nM.
For COc1cccc(S(=O)(=O)N[C@@H](CC2CCCCC2)C(=O)NCCN2CCc3cc(F)ccc32)c1 [Compound 245, (S)-3-Cyclohexyl-N-[2-(5-fluoro-2,3-dihydro-indol-1-yl)-ethyl]-2-(3-methoxy-benzenesulfonylamino)-propionamide], the Ki was under 1000 nM.
C[C@@H](CNc1ccc(OC(F)(F)F)cc1)NC(=O)[C@H](CC1CCCCC1)NC(=O)c1nc(-c2cccc(F)c2)no1 [Compound 108, 3-(3-Fluoro-phenyl)-[1,2,4]oxadiazole-5-carboxylic acid {2-cyclohexyl-1-(S)-[1-(S)-methyl-2-(4-trifluoromethoxy-phenylamino)-ethylcarbamoyl]-ethyl}-amide] gave a Ki of under 100 nM.
Molecule COc1ccc(N[C@H]2CCCC[C@H]2NC(=O)[C@H](CC(C)C)NC(=O)c2cccc(C)c2)cc1 (mixture of isomers) [Compound 33, N-{1-(S)-[cis-2-(4-Methoxy-phenylamino)-cyclohexylcarbamoyl]-3-methyl-butyl}-3-methyl-benzamide] has a Ki of under 1000 nM.
